Results taken from patent US6906205B2, “Spiro and dispiro 1,2,4-trioxolane antimalarials” (Medicines for Malaria Venture MMV, priority 2002, dated 2005).
≈ marks a conversion by molar mass, not a printed value. Read-outs that look alike come from different tables or passages of the source.

Tests used:
[1] = system: ANKA strain of P. berghei; test: single dose STI in vivo screen in infected mice; parameters: species or system Plasmodium berghei
How it was run: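 Groups of 3-5 Moro SPF or NMRI mice infected with the ANKA strain of P. berghei received a single dose of trioxolane on day one post-infection. The compound was given in 3% ethanol and 7% Tween 80 or in SSV (0.5% w/v CMC, 0.5% v/v benzyl alcohol, 0.4% v/v Tween 80, 0.9% w/v sodium chloride in water). Antimalarial activity was scored as percent reduction in parasitemia on day three and as survival time versus untreated controls. Survival to day 30 counted as cure.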

[2] = system: parasitemia (malaria infection); test: onset of action and recrudescence experiments; format: in vivo; conditions: for Time of Recrudescence: single 100 mg/kg po (SSV) on day +3 post-infection, recrudescence = >5% parasitemia, followed up to 60 days, (n/5) = animals
Experimental: The onset of drug action was determined after a single fixed dose of 100 mg/kg (SSV vehicle) po to groups of five animals on day +3 post-infection (day 0).

[3] = system: ANKA strain of Plasmodium berghei; test: single dose ED50/ED90/ED99 determinations in infected mice; format: in vivo; conditions: for ED50: Plasmodium berghei
How it was run: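 Mice (Moro SPF or NMRI, n=3 per group) infected with P. berghei ANKA received a single dose on day 1 post-infection, vehicle 0.5% CMC/0.5% benzyl alcohol/0.4% Tween 80/0.9% NaCl in water. Read-out is percent reduction in parasitemia on day 3; ED values by nonlinear fitting.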

P. berghei ANKA strain [4] = test: treatment: 3x10 mg/kg p.o. divided dose vs 1x30 mg/kg po single dose in infected mice; format: in vivo, Plasmodium berghei; conditions: for Activity (%) p.o. SSV: percent reduction of parasitemia day 4
Experimental: Moro NMRI male mice (Fü Albino specific pathogen free) weighing 18±2 g were infected intravenously (i.v.) with 2×10^7 P. berghei ANKA strain-infected erythrocytes from donor mice on day 0 of the experiment. From donor mice with circa 30% parasitemia, heparinized blood was taken and diluted in physiological saline to 10^8 parasitized erythrocytes per ml. An aliquot (0.2 ml) of this suspension was injected i.v. into experimental and control groups of mice. […] Throughout the experiments, mice were kept in groups of three or five animals in Makrolon type II cages in an air-conditioned animal room at 22 to 23° C.
They were administered per os (p.o.) in a total volume of 0.01 ml per gram of mouse. The activity of the compound was determined by a variety of methods outlined in subsequent sections. Survival time was also recorded, and survival to day 30 post-infection was considered to be a cure.
The first experiment conducted consisted of administration of a divided 3×10 mg/kg p.o. dose administered on days 1, 2, and 3 post-infection vs. a single 1×30 mg/kg po dose administered on day 1 post-infection. On day 4 post-infection, blood smears of all animals were prepared and stained with Giemsa. […] Compounds were administered orally in the SSV vehicle.

P. berghei ANKA strain [5] = test: treatment: 3x3 mg/kg and 3x1 mg/kg po divided doses in infected mice; format: in vivo, Plasmodium berghei; conditions: for Activity (%) p.o. SSV: percent reduction of parasitemia day 4
How it was run: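 NMRI mice infected i.v. with 2×10^7 P. berghei ANKA-parasitized erythrocytes on day 0, then dosed orally in SSV vehicle at 3×3 or 3×1 mg/kg on days 1–3. Day-4 Giemsa smears gave percent parasitemia reduction versus untreated controls; survival to day 30 counted as cure.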

P. berghei ANKA strain [6] = test: prophylactic activity, single 100 mg/kg po dose before infection; format: in vivo, Plasmodium berghei; conditions: for Prophylactic Activity (%): reduction of parasitemia day 3 post-infection
Experimental: Moro NMRI male mice (Fü Albino specific pathogen free) weighing 18±2 g were infected intravenously (i.v.) with 2×10^7 P. berghei ANKA strain-infected erythrocytes from donor mice on day 0 of the experiment. From donor mice with circa 30% parasitemia, heparinized blood was taken and diluted in physiological saline to 10^8 parasitized erythrocytes per ml. An aliquot (0.2 ml) of this suspension was injected i.v. into experimental and control groups of mice. In untreated control mice, parasitemia rose regularly to 40 to 50% by day 3 post-infection and 70 to 80% by day 4 post-infection. The mice died between days 5 and 7 post-infection. Throughout the experiments, mice were kept in groups of three or five animals in Makrolon type II cages in an air-conditioned animal room at 22 to 23° C. A diet with p-aminobenzoic acid (PABA) of 45 mg (NAFAG FUTTER© food N^o 9009 PAB-45) per kg of body weight, and tap water is available ad libitum.
OZ compounds were prepared at an appropriate concentration, either as a solution or a suspension containing SSV (0.5% w/v CMC, 0.5% v/v benzyl alcohol, 0.4% v/v Tween 80, and 0.9% w/v sodium chloride in water). They were administered per os (p.o.) in a total volume of 0.01 ml per gram of mouse. The activity of the compound was determined by a variety of methods outlined in subsequent sections. Survival time was also recorded, and survival to day 30 post-infection was considered to be a cure.
Prophylactic activities of the compounds were compared after administering po single dose of 100 mg/kg to different groups of five animals at various times before infection. All groups including an untreated control group, were then infected at the same time. Parasitemia was determined for each animal on day 3 post-infection, and percent of reduction of the level of parasitemia compared to levels for animals given no drug is determined.

[7] = system: P. falciparum NF54 strain (sensitive to standard antimalarials); test: semiautomated microdilution assay, [3H]-hypoxanthine incorporation, NF54 strain; format: cell-based, Plasmodium falciparum; conditions: Plasmodium falciparum; NF54 strain, 72 h incubation; read-out: IC50 (ng/ml) NF54
How it was run: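 Asynchronous stock cultures → intraerythrocytic forms; semiautomated microdilution; IC50 by logit regression.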

[8] = percent reduction in parasitemia day 3 post-infection, single 3 mg/kg po in SSV
[9] = single dose po in SSV, mice, percent reduction in parasitemia on day three post-infection
[10] = 3 × 10 mg/kg days 1, 2, 3 post-infection
[11] = 3 × 1 mg/kg days 1, 2, 3 post-infection
[12] = 3 × 3 mg/kg days 1, 2, 3 post-infection
[13] = single 100 mg/kg po 24 h before infection

SMILES	Activity (%) 3 mg/kg SSV po [1, 8] [%]	Survival (days) 10 mg/kg SSV po ([1]; single 10 mg/kg po in SSV) [days]	Time of Recrudescence [2] [days]	ED90 [3, 9] [mg/kg]	ED99 [3, 9] [mg/kg]	Survival (days) p.o. SSV (P. berghei ANKA strain [5]; [11]) [days]	Activity (%) p.o. SSV (P. berghei ANKA strain [5]; [11]) [%]	Survival (days) p.o. SSV (P. berghei ANKA strain [5]; [12]) [days]	Activity (%) p.o. SSV (P. berghei ANKA strain [5]; [12]) [%]	Prophylactic Activity (%) (P. berghei ANKA strain [6]; [13])	Prophylactic Activity (%) (P. berghei ANKA strain [6]; single 100 mg/kg po at 0 h)	other results
C[C@H]1[C@H](OC(=O)CCC(=O)O)O[C@@H]2O[C@@]3(C)CC[C@H]4[C@H](C)CC[C@@H]1[C@@]24OO3 [AS, artesunate, reference compound]	66	7.0	8.6	19	60	6.8	39	9.4	78	6.28	92.44	Activity (%) 10 mg/kg SSV po ([1]; percent reduction in parasitemia day 3 post-infection, single 10 mg/kg po in SSV): 87%; ED50 ([3]; po): 4.7 mg/kg; Activity (%) p.o. SSV (P. berghei ANKA strain [4]; 1 × 30 mg/kg single dose day 1 post-infection): 83.83%; Survival (days) p.o. SSV (P. berghei ANKA strain [4]; [10]): 11 days; Activity (%) p.o. SSV (P. berghei ANKA strain [4]; [10]): 98.62%; Cures (P. berghei ANKA strain [4]; 3 × 10 mg/kg, survival to day 30 post-infection = cure, cured/treated mice): 0/5
OC(c1cc(C(F)(F)F)nc2c(C(F)(F)F)cccc12)C1CCCCN1 (centres unmarked) [MFQ, mefloquine, reference compound]	9	17	28.0	5.4	6.8	6.2	2	12	98	100	100	IC50 [7]: 5 ng/mL (≈ 0.0132 µM); Survival (days) 3 mg/kg SSV po ([1]; single 3 mg/kg po in SSV): 6.3 days; onset of action (decline in parasitemia) ([2]; single 100 mg/kg po (SSV), parasitemia monitored 12, 24, 48 h after treatment): slow onset of action; ED50 ([3]; single dose po in SSV, mice, percent reduction in parasitemia on day three post-infection, read-out: ED50): 4 mg/kg; Prophylactic Activity (%) (P. berghei ANKA strain [6]; single 100 mg/kg po 48 h before infection): 99.92%; Prophylactic Activity (%) (P. berghei ANKA strain [6]; single 100 mg/kg po 72 h before infection): 99.97%; duration of prophylactic protection (P. berghei ANKA strain [6]; single 100 mg/kg po before infection): 3 days
